Biological target: human GABA A receptor α5β3γ2 (Homo sapiens (Human), UniProt P18507+P31644)
Experiment: [3H]flumazenil competition binding assay, human GABA A α5β3γ2 receptors expressed in HEK293 cells
Conditions: human receptor; displacement of [3H]flumazenil (0.5 nM); means of two determinations; read-out: hKi GABAAa5
Summary of the method: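 Ki values, each the mean of two runs, derive from displacement of [3H]flumazenil from human α5β3γ2 GABA A receptors transiently expressed in HEK293 membranes. Binding ran 1 h at 4° C in Krebs-tris, pH 7.5, before filter harvest and scintillation counting.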

SMILES | Ki [nM]
COC(=O)c1cnc(OCc2c(-c3ccccc3)noc2C)c(Br)c1 [Example 64, 5-Bromo-6-(5-methyl-3-phenyl-isoxazol-4-ylmethoxy)-nicotinic acid methyl ester] | 34.4
Cc1onc(-c2ccccc2)c1COc1ccc(C(=O)N2CCCn3nccc32)cn1 [Example 78, (6,7-Dihydro-5H-pyrazolo[1,5-a]pyrimidin-4-yl)-[6-(5-methyl-3-phenyl-isoxazol-4-ylmethoxy)-pyridin-3-yl]-methanone] | 40.7
COC(=O)c1ccc(OCc2c(-c3cccc(Cl)c3)noc2C)nc1 [Example 97, 6-[3-(3-Chloro-phenyl)-5-methyl-isoxazol-4-ylmethoxy]-nicotinic acid methyl ester] | 27.4
Cc1onc(-c2ccc(F)cn2)c1COc1ccc(C(=O)NC2CCOCC2)cn1 [Example 288, 6-[3-(5-Fluoro-pyridin-2-yl)-5-methyl-isoxazol-4-ylmethoxy]-(tetrahydro-pyran-4-yl)-nicotinamide] | 0.4
CCOC(=O)C(C)NC(=O)c1ccc(OCc2c(-c3ccccc3)noc2C)nc1 (centres unmarked) [Example 25, 2-{[6-(5-Methyl-3-phenyl-isoxazol-4-ylmethoxy)-pyridine-3-carbonyl]-amino}-propionic acid ethyl ester] | 20.2
Cc1onc(-c2ccccc2)c1COc1cc(C(=O)NC2CCOCC2)ccn1 [Example 59, 2-(5-Methyl-3-phenyl-isoxazol-4-ylmethoxy)-N-(tetrahydro-pyran-4-yl)-isonicotinamide] | 55.4
COCCNC(=O)c1ccc(OCc2conc2-c2ccc(F)cc2)nc1 [Example 336, 6-[3-(4-Fluoro-phenyl)-isoxazol-4-ylmethoxy]-N-(2-methoxy-ethyl)-nicotinamide] | 40.7
COC(=O)c1ccc(OCc2c(-c3ccccc3)noc2C(F)(F)F)nc1 [Example 128, 6-(3-Phenyl-5-trifluoromethyl-isoxazol-4-ylmethoxy)-nicotinic acid methyl ester] | 88.5
Cc1onc(-c2ccccc2)c1COc1cc(C(F)(F)F)c(C(=O)O)cn1 [Example 61, 6-(5-Methyl-3-phenyl-isoxazol-4-ylmethoxy)-4-trifluoromethyl-nicotinic acid] | 18.4
Cc1onc(-c2ccccc2)c1COc1ccc(C(=O)NC2CCCN(C(=O)OC(C)(C)C)C2)cn1 (centres unmarked) [Example 38, 3-{[6-(5-Methyl-3-phenyl-isoxazol-4-ylmethoxy)-pyridine-3-carbonyl]-amino}-piperidine-1-carboxylic acid tert-butyl ester] | 43.5
Cc1onc(-c2cccc(Cl)c2)c1COc1ccc(C(=O)NC2CC2)cn1 [Example 100, 6-[3-(3-Chloro-phenyl)-5-methyl-isoxazol-4-ylmethoxy]-N-cyclopropyl-nicotinamide] | 7.6
O=C(NCC(F)(F)F)c1ccc(OCc2c(-c3ccc(F)cc3)noc2C(F)(F)F)nc1 [Example 140, 6-[3-(4-Fluoro-phenyl)-5-trifluoromethyl-isoxazol-4-ylmethoxy]-N-(2,2,2-trifluoro-ethyl)-nicotinamide] | 57.8
Cc1onc(-c2ccccn2)c1COc1ccc(C(=O)NC(C)(C)CO)cn1 [Example 281, (2-Hydroxy-1,1-dimethyl-ethyl)-6-(5-methyl-3-pyridin-2-yl-isoxazol-4-ylmethoxy)-nicotinamide] | 4
O=C(N[C@H]1CCC[C@@H]1O)c1ccc(OCc2conc2-c2ccc(F)cc2)nc1 [Example 331, 6-[3-(4-Fluoro-phenyl)-isoxazol-4-ylmethoxy]-N-((1S,2S)-2-hydroxy-cyclopentyl)-nicotinamide] | 17.8
Cc1onc(-c2ccccc2)c1COc1ccc(C(=O)N2CCCCC2)cn1 [Example 51, [6-(5-Methyl-3-phenyl-isoxazol-4-ylmethoxy)-pyridin-3-yl]-piperidin-1-yl-methanone] | 50.8
COCCNC(=O)c1ccc(OCc2c(-c3ccccn3)noc2C)nc1 [Example 285, (2-Methoxy-ethyl)-6-(5-methyl-3-pyridin-2-yl-isoxazol-4-ylmethoxy)-nicotinamide] | 1.1

Further compounds by falling Ki, results first:

Ki [nM] | SMILES
25.6 | Cc1onc(-c2ccccc2)c1COc1ccc(C(=O)N2CCSCC2)cn1 [Example 54, [6-(5-Methyl-3-phenyl-isoxazol-4-ylmethoxy)-pyridin-3-yl]-thiomorpholin-4-yl-methanone]
21.4 | CC(C)NC(=O)c1ccc(OCc2conc2-c2ccccc2)nc1 [Example 321, N-Isopropyl-6-(3-phenyl-isoxazol-4-ylmethoxy)-nicotinamide]
21.2 | O=C(NC(CO)CO)c1ccc(OCc2conc2-c2ccc(F)cc2)nc1 [Example 334, 6-[3-(4-Fluoro-phenyl)-isoxazol-4-ylmethoxy]-N-(2-hydroxy-1-hydroxymethyl-ethyl)-nicotinamide]
18.9 | O=C(NC1CC1)c1ccc(OCc2conc2-c2ccccn2)nc1 [Example 360, N-Cyclopropyl-6-(3-pyridin-2-yl-isoxazol-4-ylmethoxy)-nicotinamide]
17.8 | Cc1onc(-c2cccc(F)c2)c1CNc1ccc(C(=O)NCC(F)(F)F)cn1 [Example 168, 6-{[3-(3-Fluoro-phenyl)-5-methyl-isoxazol-4-ylmethyl]-amino}-N-(2,2,2-trifluoro-ethyl)-nicotinamide]
16.8 | Cc1onc(-c2ccccc2)c1COc1ccc(C(=O)N2CCC(F)(F)CC2)cn1 [Example 52, (4,4-Difluoro-piperidin-1-yl)-[6-(5-methyl-3-phenyl-isoxazol-4-ylmethoxy)-pyridin-3-yl]-methanone]
16.8 | Cc1onc(-c2ccccc2)c1COc1ccc(C(=O)N2CCC23COC3)cn1 [Example 82, [6-(5-Methyl-3-phenyl-isoxazol-4-ylmethoxy)-pyridin-3-yl]-(6-oxa-1-aza-spiro[3.3]hept-1-yl)-methanone]
13.7 | CCNC(=O)CN1CCCC(NC(=O)c2ccc(OCc3c(-c4ccccc4)noc3C)nc2)C1 (centres unmarked) [Example 42, N-(1-Ethylcarbamoylmethyl-piperidin-3-yl)-6-(5-methyl-3-phenyl-isoxazol-4-ylmethoxy)-nicotinamide]
12.4 | O=C(NC1CC1)c1ccc(OCc2conc2-c2ccc(Cl)cc2)nc1 [Example 343, 6-[3-(4-Chloro-phenyl)-isoxazol-4-ylmethoxy]-N-cyclopropyl-nicotinamide]
10.4 | Cc1onc(-c2ccccc2)c1CNc1ccc(C(=O)NCCO)cn1 [Example 162, N-(2-Hydroxy-ethyl)-6-[(5-methyl-3-phenyl-isoxazol-4-ylmethyl)-amino]-nicotinamide]
7.7 | Cc1onc(-c2ccccc2)c1COc1ccc(C(=O)NCC(C)(C)CO)cn1 [Example 188, N-(3-Hydroxy-2,2-dimethyl-propyl)-6-(5-methyl-3-phenyl-isoxazol-4-ylmethoxy)-nicotinamide]
5.9 | Cc1onc(-c2ccccc2)c1CNc1ccc(C(=O)NC(C)C)cn1 [Example 164, N-Isopropyl-6-[(5-methyl-3-phenyl-isoxazol-4-ylmethyl)-amino]-nicotinamide]
4.9 | Cc1onc(-c2ccccc2)c1COc1ccc(C(=O)NC2CCS(=O)(=O)CC2)cn1 [Example 33, N-(1,1-Dioxo-hexahydro-1,6-thiopyran-4-yl)-6-(5-methyl-3-phenyl-isoxazol-4-ylmethoxy)-nicotinamide]
4.3 | Cc1onc(-c2ccccc2)c1COc1ccc(C(=O)NCCN2CCNC2=O)cn1 [Example 214, 6-(5-Methyl-3-phenyl-isoxazol-4-ylmethoxy)-N-[2-(2-oxo-imidazolidin-1-yl)-ethyl]-nicotinamide]
2.7 | Cc1onc(-c2ccccc2)c1COc1ccc(C(=O)N[C@H]2CCC[C@H]2O)cn1 (single isomer, unassigned) [Example 211, N-((1S,2R)-2-Hydroxy-cyclopentyl)-6-(5-methyl-3-phenyl-isoxazol-4-ylmethoxy)-nicotinamide or N-((1R,2S)-2-hydroxy-cyclopentyl)-6-(5-methyl-3-phenyl-isoxazol-4-ylmethoxy)-nicotinamide]
2.6 | Cc1onc(-c2ccccc2)c1COc1ccc(C(=O)NCCCCO)cn1 [Example 220, N-(4-Hydroxy-butyl)-6-(5-methyl-3-phenyl-isoxazol-4-ylmethoxy)-nicotinamide]
2.2 | Cc1onc(-c2ccccc2)c1COc1ccc(C(=O)NCC(F)(F)F)cn1 [Example 12, 6-(5-Methyl-3-phenyl-isoxazol-4-ylmethoxy)-N-(2,2,2-trifluoro-ethyl)-nicotinamide]
2 | Cc1onc(-c2ccccc2)c1COc1ccc(C(=O)N[C@H]2CCC[C@@H]2O)cn1 (single isomer, unassigned) [Example 212, N-((1S,2S)-2-Hydroxy-cyclopentyl)-6-(5-methyl-3-phenyl-isoxazol-4-ylmethoxy)-nicotinamide or N-((1R,2R)-2-hydroxy-cyclopentyl)-6-(5-methyl-3-phenyl-isoxazol-4-ylmethoxy)-nicotinamide]
1.6 | Cc1onc(-c2ccccc2)c1COc1ccc(C(=O)N[C@H]2CCOC2)cn1 [Example 202, 6-(5-Methyl-3-phenyl-isoxazol-4-ylmethoxy)-N—(S)-tetrahydro-furan-3-yl-nicotinamide]
1.6 | Cc1onc(-c2ccccc2)c1COc1ccc(C(=O)N[C@@H]2CCC[C@H]2O)cn1 (single isomer, unassigned) [Example 213, N-((1R,2R)-2-Hydroxy-cyclopentyl)-6-(5-methyl-3-phenyl-isoxazol-4-ylmethoxy)-nicotinamide or N-((1S,2S)-2-hydroxy-cyclopentyl)-6-(5-methyl-3-phenyl-isoxazol-4-ylmethoxy)-nicotinamide]
1.2 | Cc1onc(-c2ccc(F)cc2)c1COc1ccc(C(=O)NCC(F)(F)F)cn1 [Example 105, 6-[3-(4-Fluoro-phenyl)-5-methyl-isoxazol-4-ylmethoxy]-N-(2,2,2-trifluoro-ethyl)-nicotinamide]
1 | Cc1onc(-c2ccccc2)c1COc1ccc(C(=O)NC(C)CO)cn1 (centres unmarked) [Example 190, N-(2-Hydroxy-1-methyl-ethyl)-6-(5-methyl-3-phenyl-isoxazol-4-ylmethoxy)-nicotinamide]

From US8846719B2, “Isoxazolo-pyridine derivatives” (Roche Palo Alto LLC, priority 2007, dated 2014)
